Results from the METLIN SMRT retention time set (Domingo-Almenara et al. 2019).

Assay: gradient 5% acetonitrile 3 min, to 50% in 2 min, to 85% in 15 min, held 3 min, 100 µL/min
Conditions: column: Zorbax Extend-C18 2.1 x 50 mm; eluents: water / acetonitrile, 0.1% formic acid
Method in brief: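 Using water and acetonitrile that each contained 0.1% formic acid, mixtures of ~100 pure standards were separated at 100 μL/min on a Zorbax Extend-C18 column (2.1 × 50 mm, 1.8 μm). The HPLC fed a quadrupole time-of-flight mass spectrometer working in positive and negative ionization mode, with dead and dwell volumes of 40 μL and 900 μL. Data were acquired over 3 months. Retention time was read from computationally picked adduct peaks after manual inspection of each.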

Row | RP-LC retention time [s] | SMILES
1 | 727 | O=C(Nc1ccc(F)cc1Cl)C1CCN(C(=O)c2cccn2-c2cccnc2)CC1
2 | 585 | Cc1cc(C)c2c(N3CCOCC3)nc(C(=O)NCC3CCCO3)nc2n1 (stereo not drawn)
3 | 816 | CCOc1ccc(NC(=O)C2CCN(S(=O)(=O)c3ccc4c(c3)CCCC(=O)N4)CC2)cc1
4 | 708 | CCc1ccc(Nc2nc(C(=O)NC)nc3ccccc23)cc1
5 | 833 | O=[N+]([O-])c1ccc(-c2nc(N3CCOCC3)c3ccccc3n2)cc1
6 | 915 | O=C(NC1CCCC1)C1CCCN(c2nccn3nc(-c4ccccc4Cl)cc23)C1 (stereo not drawn)
7 | 972 | Cc1ccc(-c2nc(Cn3cccc3C(=O)N3CCCC3)no2)cc1
8 | 740 | CCn1nccc1C(=O)NCCn1c(=O)n(Cc2ccccc2)c2cccnc21
9 | 718 | CCN1CCc2c(sc(-n3cccc3)c2CNC(=O)Nc2cc(C)ccc2OC)C1
10 | 948 | Cc1ccc(NC(=O)C2CCN(S(=O)(=O)c3ccc4c(c3)NC(=O)C(C)O4)CC2)cc1Cl (stereo not drawn)
11 | 746 | O=C(COc1ccccc1)Nc1cnc(N2CCOCC2)nc1
12 | 567 | OC(COCc1ccc(Cl)cc1)CN1CCN(c2ccccn2)CC1 (stereo not drawn)
13 | 732 | CC(=O)c1ccc(NC(=O)c2cc(-c3cccnc3)nc3ccccc23)cc1
14 | 702 | Cn1cnc(S(=O)(=O)N2CCCN(S(=O)(=O)c3cccc4nsnc34)CCNC(=O)CC2c2ccccc2)c1 (stereo not drawn)
15 | 902 | O=C(Cc1csc2nc(-c3ccccc3)cn12)Nc1ccc(F)c(Cl)c1
16 | 732 | Cc1ncsc1CN1CCC(Oc2ccccc2-c2nc(-c3ccccc3)no2)C1 (stereo not drawn)
17 | 680 | Cc1cnc(-c2ccccc2)n1C1CCN(S(=O)(=O)c2ccc(C#N)cc2)C1 (stereo not drawn)
18 | 887 | CCc1cccc(NC(=O)N2C[C@@H](F)C[C@H]2C(=O)N2CCc3ccccc3C2)c1
19 | 657 | COC(=O)c1ccc(Cl)cc1NC(=O)N1CCN(CCn2c(C)nc3cccnc32)CC1
20 | 667 | CCOc1ccc2ncc(S(=O)(=O)c3ccc(C)cc3)c(N3CCN(C)CC3)c2c1
21 | 830 | CCOc1ccc(CC(=O)N2CCC3(CC2)C(=O)N(C)c2ccccc23)cc1OCC
22 | 756 | COc1ccc(NC(=O)C2CCN(c3cnc4nc(C)c(C)nc4c3)CC2)cc1Cl
23 | 840 | Cc1ccc(CNC(=O)c2csc(-c3cn(C)c4ncccc34)n2)cc1C

Row | RP-LC retention time [s] | SMILES
24 | 986 | CN(C)c1ccc(C(=O)N2CCCC2c2nc(-c3ccccc3)no2)cc1 (stereo not drawn)
25 | 753 | Cc1ccc(NC(=O)C2CCCN(c3nnc4cccc(C)n34)C2)cc1F (stereo not drawn)
26 | 562 | Cc1ccc2c(C(=O)N3CCN(CC(C)C)CC3)cc(NC(=O)C3CCC3)cc2n1
27 | 809 | Cc1ccc(C)c(N2C(=O)CN(S(C)(=O)=O)CC2(C)C(=O)NCc2ccccc2)c1 (stereo not drawn)
28 | 784 | CCC(C)NC(=O)C1CCN(Cc2cc3ccccc3n2Cc2ccccc2Cl)CC1 (stereo not drawn)
29 | 937 | O=C(Cn1c(=O)cc(-c2nc(C3CC3)no2)c2ccccc21)Nc1ccccc1
30 | 1050 | Cc1ccc(C2Cn3nnc(C(=O)NC4CCCCC4)c3CO2)cc1 (stereo not drawn)
31 | 938 | Cc1cccc(CNc2nnc(-c3nc(C4CC4)no3)c3ccccc23)c1
32 | 994 | Cc1cc(NC(=O)c2cnc(-c3ccccc3)nc2-c2ccncc2)ccc1Br
33 | 795 | Cc1cc(OCC(O)Cn2c(C3CC3)nc3ccccc32)cc(C)c1Cl (stereo not drawn)
34 | 1140 | Cc1nn(-c2nc(-c3ccc(F)cc3)cs2)c(C)c1CC(=O)Nc1ccccc1F
35 | 921 | Cc1cccc(N2CCN(C(=O)Cc3nnc(-c4sccc4C)o3)CC2)c1
36 | 1040 | CCOc1ccc(N2C(=O)C3N=NN(Cc4nc(-c5ccccc5C)no4)C3C2=O)cc1 (stereo not drawn)
37 | 608 | c1ccc(-c2cccc(-c3ccccn3)n2)nc1
38 | 610 | CCOCCCNC(=O)C1CCN(c2nnc3c(Cl)cccn23)CC1
39 | 894 | CS(=O)(=O)N1CCC(C(=O)Nc2cccc(F)c2)Oc2ccccc21 (stereo not drawn)
40 | 823 | Cn1ncc2c(N3CCSCC3)nc(C(=O)NCc3ccc(F)cc3)nc21
41 | 1140 | Cc1ccc(S(=O)(=O)N2CCCC(c3nc(-c4cccc(-c5ccnn5C)c4)no3)C2)cc1 (stereo not drawn)
42 | 624 | CN(C)c1ncncc1N1CCC(C(=O)NC2CCCCCC2)CC1
43 | 1090 | Cc1ccc(C(C)NC(=O)C2CCN(c3nccnc3Oc3ccccc3)CC2)c(C)c1 (stereo not drawn)
44 | 720 | COc1ccccc1/C=C/C(=O)N1CCC(c2cc(N)on2)CC1
45 | 986 | Cc1nc(-c2csc(S(=O)(=O)N3CCC(C(=O)Nc4ccc(Cl)cc4)CC3)c2)no1

Second part, the compound before the results:

Row | SMILES | RP-LC retention time [s]
46 | CC(C)N1CCN(Cc2nc(-c3ccc(N4CCSCC4)nc3)no2)CC1 | 614
47 | COc1ccccc1-c1nc(-c2ccc3nnn(C)c3c2)no1 | 923
48 | Cc1cc(C)n2c(Nc3ccc4c(c3)OCCO4)c(-c3cccc(Br)c3)nc2n1 | 759
49 | Cc1cc(C)cc(NS(=O)(=O)c2cc(-c3cc(C(F)(F)F)on3)sc2C)c1 | 1230
50 | Cc1cc(N2CCOCC2)n2nc(CN3CCN(c4cc(Cl)ccc4C)CC3)nc2n1 | 668
51 | Cc1nc(CSc2cc(-c3ccccc3)ncn2)cs1 | 907
52 | CCN1CCN(c2ccc(NC(C)=O)cn2)C1=O | 567
53 | CCCCCC[C@@H]([C@@H](C)O)n1cnc2c(N)ncnc21 | 714
54 | CCCn1cc(CCNS(=O)(=O)c2ccccc2)c2cccnc21 | 786
55 | CCn1c(=O)sc2cc(S(=O)(=O)N3CCC(C(=O)N4CCC5(CC4)OCCO5)CC3)ccc21 | 781
56 | Cc1nc(-c2ccccc2OC2CN(S(=O)(=O)c3cccc4nsnc34)C2)no1 | 883
57 | CC(C)CCNC(=O)NCCC1CCN(S(=O)(=O)c2ccc(F)cc2)CC1 | 880
58 | COc1ccc(C(=O)Nc2nc(CC(=O)Nc3nc4c(C)cccc4s3)cs2)cc1 | 1010
59 | CN(C)CCCNC(=O)c1cn(C)nc1S(=O)(=O)N1CCN(c2ccc(Cl)cc2)CC1 | 684
60 | CCc1ccccc1S(=O)(=O)N(C)CC1CCOC1 (stereo not drawn) | 850
61 | COCCNS(=O)(=O)c1cccc(-c2nnc(-c3ccc(C)cc3)o2)c1 | 880
62 | Cc1cccc(-c2noc(CN3C(=O)COc4cc(Cl)ccc43)n2)c1 | 1160
63 | CCOC(=O)c1cccc(NC(=O)Cc2csc3nc(-c4ccc(OC)c(OC)c4)cn23)c1 | 761
64 | Cc1nc(C2CN(S(=O)(=O)c3ccccc3C(F)(F)F)CC23CCOCC3)no1 (stereo not drawn) | 892
65 | CCn1cc(-c2nc(C(=O)Nc3ccc(C(=O)OC)cc3)cs2)c2cccnc21 | 1080
66 | N#Cc1cccc(NC(=O)C2CCCN(S(=O)(=O)c3c[nH]c(C(=O)N4CCCC4)c3)C2)c1 (stereo not drawn) | 777
67 | O=C(Cn1c(C2CC(=O)N(C3CCCCC3)C2)nc2ccccc21)N1CCOCC1 (stereo not drawn) | 630

Row | SMILES | RP-LC retention time [s]
68 | CCc1nc(-c2csc(S(=O)(=O)N3CCCC(C(=O)N(C)c4ccc(C)c(C)c4)C3)c2)no1 (stereo not drawn) | 1140
69 | COc1ccc(N2CC(c3nc(-c4ccccc4F)no3)CC2=O)cc1OC (stereo not drawn) | 808
70 | CCOc1ccc(-c2noc(Cn3c(=O)n(-c4ccccc4C)c(=O)c4sccc43)n2)cc1OC | 960
71 | Cc1nc(-c2noc(-c3ccc(F)cc3)n2)cn1CC(=O)NCc1ccc(F)cc1 | 832
72 | COc1ccc(CN2CCC([C@@H]3CNC[C@H]3CO)CC2)c(OC)c1 | 549
73 | CN(C)CCCNC(=O)Cn1c(=O)n(-c2ccccc2)c2ncccc21 | 592
74 | CC(Cc1ccco1)NC(=O)c1cc(S(=O)(=O)N2CCCCCC2)ccc1Cl (stereo not drawn) | 1010
75 | O=C(c1ccc(N2CCCC2=O)cc1)N1CCCn2nc(-c3ccc(F)cc3)cc2C1 | 708
76 | CCn1c(=O)c2cc(C(N)=O)nn2c2ccccc21 | 653
77 | Cc1ccc(NS(=O)(=O)c2cc(-c3nc(C(C)(C)C)cs3)cs2)c(Cl)c1 | 1320
78 | COc1ccc(OC)c(NC(=O)Cn2cnc3nc4c(cc3c2=O)CCCC4)c1 | 676
79 | Cc1oc(-c2[nH]ncc2C(=O)N2CCCCC2)cc1S(=O)(=O)Nc1ccc(F)cc1 | 738
80 | CCn1cccc(-c2nnc(SCC(=O)NCc3ccco3)n2C)c1=O | 576
81 | COCCOC1CCN(S(=O)(=O)c2ccccc2C)CC1 | 810
82 | Cc1ccc(NS(=O)(=O)c2cc(-c3cc(C(F)(F)F)on3)sc2C)c(C)c1 | 1230
83 | Cc1ccc(-c2csc(NC(=O)c3sc(C)nc3C)n2)cc1 | 974
84 | COc1ccc(NC(=O)CN2CCc3[nH]c4c(C)c(C)ccc4c(=O)c3C2)c(OC)c1 | 626
85 | CCN(CC)C(=O)c1ccc(C2=CC3(CCNCC3)Oc3cccc(O)c32)cc1 | 725
86 | CCCCn1c(=O)c2c(nc3n2CCCCN3c2ccc(OCC)cc2)n(C)c1=O | 1050
87 | CCC(=O)Nc1ccc(C2(C(=O)N3CCOCC3)CCCCC2)cc1 | 721
88 | O=C(OCCN1CCOCC1)C1(c2ccccc2)CCCCC1 | 755
